Tests used:
Settings in all cases: exposure time: 72 h
E34 [1] = patient-derived glioblastoma stem cells of proneural subtype; experiment: phenotypic distance (Euclidean, principal components) from DMSO controls (arbitrary units); higher = stronger morphological change
E13 [2] = patient-derived glioblastoma stem cells of classical subtype; experiment: as above
E21 [3] = patient-derived glioblastoma stem cells of mesenchymal subtype; experiment: as above
FT3469 [4] = normal neural stem cell line; experiment: as above
E28 [5] = patient-derived glioblastoma stem cells of classical subtype; experiment: as above
E57 [6] = patient-derived glioblastoma stem cells of mesenchymal subtype; experiment: as above
E31 [7] = patient-derived glioblastoma stem cells of proneural subtype; experiment: as above
E34 [8] = experiment: surviving fraction (nuclei count normalised to DMSO); higher = more cells surviving (less toxic)
E13 [9] = experiment: as above
E21 [10] = experiment: as above
FT3469 [11] = experiment: as above
E28 [12] = experiment: as above
E57 [13] = experiment: as above
E31 [14] = experiment: as above
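Wherever phenotypic distance (Euclidean, principal components) from DMSO controls is given: cell Painting imaging in 384-well plates, CellProfiler features reduced to at least 20 principal components, Euclidean distance versus same-plate DMSO vehicle wells (0.1% v/v), median over six images per well.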
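Wherever surviving fraction (nuclei count normalised to DMSO) is given: nuclei counted by high-content imaging of Hoechst-stained cells in laminin-coated 384-well plates, relative to 0.1% DMSO vehicle wells, with staurosporine as cell-death control.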

COC(=O)C[C@](O)(CCCC(C)(C)O)C(=O)O[C@@H]1C(OC)=C[C@]23CCCN2CCc2cc4c(cc2[C@H]13)OCO4 [Homoharringtonine]
Settings	phenotypic distance	surviving fraction
E13 [2], 4.1 nM	1.66	–
E13 [2], 12.3 nM	2.13	–
E13 [2], 37 nM	4.35	–
E13 [2], 111.1 nM	3.97	–
E13 [2], 333.3 nM	5.67	–
E13 [2], 1000 nM	7.51	–
E13 [2], 3000 nM	8.63	–
E13 [9], 4.1 nM	–	0.73
E13 [9], 12.3 nM	–	0.702
E13 [9], 37 nM	–	0.367
E13 [9], 111.1 nM	–	0.401
E13 [9], 333.3 nM	–	0.316
E13 [9], 1000 nM	–	0.239
E13 [9], 3000 nM	–	0.0816
E21 [3], 4.1 nM	1.39	–
E21 [3], 12.3 nM	1.73	–
E21 [3], 37 nM	4.36	–
E21 [3], 111.1 nM	3.63	–
E21 [3], 333.3 nM	4.11	–
E21 [3], 1000 nM	5.37	–
E21 [3], 3000 nM	8.36	–
E21 [10], 4.1 nM	–	0.726
E21 [10], 12.3 nM	–	0.721
E21 [10], 37 nM	–	0.289
E21 [10], 111.1 nM	–	0.402
E21 [10], 333.3 nM	–	0.186
E21 [10], 1000 nM	–	0.179
E21 [10], 3000 nM	–	0.0999
E28 [5], 4.1 nM	1.42	–
E28 [5], 12.3 nM	1.38	–
E28 [5], 37 nM	2.63	–
E28 [5], 111.1 nM	1.37	–
E28 [5], 333.3 nM	2.87	–
E28 [5], 1000 nM	3.53	–
E28 [5], 3000 nM	4.17	–
E28 [12], 4.1 nM	–	0.694
E28 [12], 12.3 nM	–	0.573
E28 [12], 37 nM	–	0.334
E28 [12], 111.1 nM	–	0.41
E28 [12], 333.3 nM	–	0.336
E28 [12], 1000 nM	–	0.343
E28 [12], 3000 nM	–	0.282
E31 [7], 4.1 nM	1.9	–
E31 [7], 12.3 nM	2.41	–
E31 [7], 37 nM	3.5	–
E31 [7], 111.1 nM	4.14	–
E31 [7], 333.3 nM	4.68	–
E31 [7], 1000 nM	5.99	–
E31 [7], 3000 nM	5.88	–
E31 [14], 4.1 nM	–	0.502
E31 [14], 12.3 nM	–	0.372
E31 [14], 37 nM	–	0.226
E31 [14], 111.1 nM	–	0.218
E31 [14], 333.3 nM	–	0.209
E31 [14], 1000 nM	–	0.164
E31 [14], 3000 nM	–	0.171
E34 [1], 4.1 nM	1.44	–
E34 [1], 12.3 nM	1.62	–
E34 [1], 37 nM	2.68	–
E34 [1], 111.1 nM	3.86	–
E34 [1], 333.3 nM	3.89	–
E34 [1], 1000 nM	4.65	–
E34 [1], 3000 nM	6.65	–
E34 [8], 4.1 nM	–	0.844
E34 [8], 12.3 nM	–	0.873
E34 [8], 37 nM	–	0.505
E34 [8], 111.1 nM	–	0.553
E34 [8], 333.3 nM	–	0.434
E34 [8], 1000 nM	–	0.412
E34 [8], 3000 nM	–	0.337
E57 [6], 4.1 nM	1.28	–
E57 [6], 12.3 nM	2.53	–
E57 [6], 37 nM	4.58	–
E57 [6], 111.1 nM	4.46	–
E57 [6], 333.3 nM	6.69	–
E57 [6], 1000 nM	8.52	–
E57 [6], 3000 nM	8.81	–
E57 [13], 4.1 nM	–	0.931
E57 [13], 12.3 nM	–	0.677
E57 [13], 37 nM	–	0.207
E57 [13], 111.1 nM	–	0.215
E57 [13], 333.3 nM	–	0.102
E57 [13], 1000 nM	–	0.0784
E57 [13], 3000 nM	–	0.0251
FT3469 [4], 4.1 nM	1.22	–
FT3469 [4], 12.3 nM	1.49	–
FT3469 [4], 37 nM	1.36	–
FT3469 [4], 111.1 nM	2	–
FT3469 [4], 333.3 nM	1.75	–
FT3469 [4], 1000 nM	2.95	–
FT3469 [4], 3000 nM	3.51	–
FT3469 [11], 4.1 nM	–	0.701
FT3469 [11], 12.3 nM	–	0.669
FT3469 [11], 37 nM	–	0.604
FT3469 [11], 111.1 nM	–	0.589
FT3469 [11], 333.3 nM	–	0.536
FT3469 [11], 1000 nM	–	0.53
FT3469 [11], 3000 nM	–	0.436

CC[C@@]1(O)C(=O)OCc2c1cc1n(c2=O)Cc2cc3cc(O)ccc3nc2-1 [Hydroxy Camptothecine]
Settings	phenotypic distance	surviving fraction
E13 [2], 4.1 nM	5.76	–
E13 [2], 12.3 nM	6.4	–
E13 [2], 37 nM	5.69	–
E13 [2], 111.1 nM	6.9	–
E13 [2], 333.3 nM	6.25	–
E13 [2], 1000 nM	6.56	–
E13 [2], 3000 nM	6.55	–
E13 [9], 4.1 nM	–	0.295
E13 [9], 12.3 nM	–	0.298
E13 [9], 37 nM	–	0.269
E13 [9], 111.1 nM	–	0.241
E13 [9], 333.3 nM	–	0.178
E13 [9], 1000 nM	–	0.197
E13 [9], 3000 nM	–	0.141
E21 [3], 4.1 nM	4.52	–
E21 [3], 12.3 nM	4.56	–
E21 [3], 37 nM	5.14	–
E21 [3], 111.1 nM	4.89	–
E21 [3], 333.3 nM	4.81	–
E21 [3], 1000 nM	5.63	–
E21 [3], 3000 nM	5.74	–
E21 [10], 4.1 nM	–	0.133
E21 [10], 12.3 nM	–	0.115
E21 [10], 37 nM	–	0.12
E21 [10], 111.1 nM	–	0.161
E21 [10], 333.3 nM	–	0.135
E21 [10], 1000 nM	–	0.106
E21 [10], 3000 nM	–	0.119
E28 [5], 4.1 nM	3	–
E28 [5], 12.3 nM	2.79	–
E28 [5], 37 nM	3.94	–
E28 [5], 111.1 nM	2.28	–
E28 [5], 333.3 nM	3.33	–
E28 [5], 1000 nM	3.32	–
E28 [5], 3000 nM	3.06	–
E28 [12], 4.1 nM	–	0.341
E28 [12], 12.3 nM	–	0.331
E28 [12], 37 nM	–	0.313
E28 [12], 111.1 nM	–	0.331
E28 [12], 333.3 nM	–	0.268
E28 [12], 1000 nM	–	0.219
E28 [12], 3000 nM	–	0.151
E31 [7], 4.1 nM	3.54	–
E31 [7], 12.3 nM	2.94	–
E31 [7], 37 nM	3.69	–
E31 [7], 111.1 nM	2.96	–
E31 [7], 333.3 nM	3.02	–
E31 [7], 1000 nM	4.3	–
E31 [7], 3000 nM	4.23	–
E31 [14], 4.1 nM	–	0.159
E31 [14], 12.3 nM	–	0.166
E31 [14], 37 nM	–	0.174
E31 [14], 111.1 nM	–	0.231
E31 [14], 333.3 nM	–	0.223
E31 [14], 1000 nM	–	0.203
E31 [14], 3000 nM	–	0.201
E34 [1], 4.1 nM	3.37	–
E34 [1], 12.3 nM	3.46	–
E34 [1], 37 nM	1.84	–
E34 [1], 111.1 nM	2.93	–
E34 [1], 333.3 nM	2.95	–
E34 [1], 1000 nM	3.66	–
E34 [1], 3000 nM	3.13	–
E34 [8], 4.1 nM	–	0.494
E34 [8], 12.3 nM	–	0.492
E34 [8], 37 nM	–	0.608
E34 [8], 111.1 nM	–	0.446
E34 [8], 333.3 nM	–	0.509
E34 [8], 1000 nM	–	0.496
E34 [8], 3000 nM	–	0.569
E57 [6], 4.1 nM	6.51	–
E57 [6], 12.3 nM	6.72	–
E57 [6], 37 nM	6.63	–
E57 [6], 111.1 nM	5.99	–
E57 [6], 333.3 nM	6.28	–
E57 [6], 1000 nM	6.33	–
E57 [6], 3000 nM	5.89	–
E57 [13], 4.1 nM	–	0.14
E57 [13], 12.3 nM	–	0.165
E57 [13], 37 nM	–	0.148
E57 [13], 111.1 nM	–	0.157
E57 [13], 333.3 nM	–	0.144
E57 [13], 1000 nM	–	0.136
E57 [13], 3000 nM	–	0.13
FT3469 [4], 4.1 nM	1.58	–
FT3469 [4], 12.3 nM	1.79	–
FT3469 [4], 37 nM	2.15	–
FT3469 [4], 111.1 nM	1.67	–
FT3469 [4], 333.3 nM	2.41	–
FT3469 [4], 1000 nM	3.08	–
FT3469 [4], 3000 nM	3.19	–
FT3469 [11], 4.1 nM	–	0.616
FT3469 [11], 12.3 nM	–	0.73
FT3469 [11], 37 nM	–	0.51
FT3469 [11], 111.1 nM	–	0.563
FT3469 [11], 333.3 nM	–	0.489
FT3469 [11], 1000 nM	–	0.442
FT3469 [11], 3000 nM	–	0.445
